{
  "source": "ChEMBL document CHEMBL5725356",
  "about": "“Anti-fibrotic pyridinones” (2017)",
  "data": [
    {"experiment": "ET-1 Assay: Fibroblasts (primary human lung and dermal, HFL-1, 3T3 etc) are seeded in 96-well plates at ~15000 cells/well and serum starved for 0-48 hours. After media exchange, compounds serially diluted in DMSO are added to the cells. After a brief incubation of ~30 min, stimulants (TGFb, serum, LPA etc) are added followed by further incubation for 16-48 hours. Media is then harvested and stored frozen in plate format for later endothelin-1 (ET-1) determination by ELISA. Toxicity measurements are made using the ATPlite kit (Perkin-Elmer). ET-1 is quantified using an ELISA kit (R&D Systems). The amount of ET-1 produced in the assay wells are back-calculated using the ELISA standard. The ability of a compound to inhibit ET-1 production is typically analyzed by fitting dose-response curves to a 4-parameter logistic function to obtain an EC50 value.", "details": "HFL1", "values": [
      {"smiles": "O=c1ccc(C(F)(F)F)cn1-c1cccc(F)c1", "EC50": "> 200 µM"},
      {"smiles": "Cc1cc(=O)n(-c2ccc(C(F)(F)F)cc2)cc1-c1cnn(C)c1", "EC50": "in the range around 125 µM"},
      {"smiles": "Cc1cc(=O)n(-c2ccc(OC(F)(F)F)cc2)cc1-c1ccc2ocnc2c1", "EC50": "< 50 µM"},
      {"smiles": "O=c1ccc(-c2cccc(Cl)c2)cn1-c1ccccc1", "EC50": "in the range around 125 µM"},
      {"smiles": "CC(C)c1cc(=O)n(-c2ccc(OC(F)(F)F)cc2)cc1-c1cnn(C)c1", "EC50": "in the range around 125 µM"},
      {"smiles": "Cc1cc(=O)n(-c2cccc(OC(F)(F)F)c2)cc1-c1cnn(C)c1", "EC50": "> 200 µM"},
      {"smiles": "Cn1cc(-c2cn(-c3ccc(OC(F)(F)F)cc3)c(=O)cc2C(F)(F)F)cn1", "EC50": "> 200 µM"},
      {"smiles": "Cc1ccc(=O)n(-c2ccccc2F)c1", "EC50": "> 200 µM"},
      {"smiles": "C#Cc1ccc(=O)n(-c2ccccc2)c1", "EC50": "> 200 µM"},
      {"smiles": "CC(C)Oc1ccc(-n2cc(-c3cccc(Cl)c3)ccc2=O)cc1", "EC50": "< 50 µM"},
      {"smiles": "Cc1cc(=O)n(-c2cccc3c2OCO3)cc1-c1cnn(C)c1", "EC50": "> 200 µM"},
      {"smiles": "O=c1ccc(-c2ccccc2)cn1-c1ccc(F)cc1", "EC50": "in the range around 125 µM"},
      {"smiles": "O=c1ccc(-c2ccccc2)cn1-c1ccccc1Cl", "EC50": "in the range around 125 µM"},
      {"smiles": "Cc1cc(=O)n(-c2ccc3c(c2)OCCO3)cc1-c1cnn(C)c1", "EC50": "> 200 µM"},
      {"smiles": "Cc1cc(=O)n(-c2ccc(OC(F)(F)F)cc2)cc1-c1ccc2ncsc2c1", "EC50": "in the range around 125 µM"},
      {"smiles": "COc1ccc(-c2ccc(=O)n(-c3cncnc3)c2)cc1", "EC50": "> 200 µM"},
      {"smiles": "O=c1ccc(-c2ccccc2)cn1-c1cncnc1", "EC50": "> 200 µM"},
      {"smiles": "COc1cccc(-n2cc(C(F)(F)F)ccc2=O)c1", "EC50": "> 200 µM"},
      {"smiles": "Cc1cc(=O)n(-c2ccc(OC(F)(F)F)cc2)cc1-c1ccc2nccn2c1", "EC50": "in the range around 125 µM"},
      {"smiles": "CC(C)Oc1ccc(-n2cc(Br)ccc2=O)cc1", "EC50": "> 200 µM"},
      {"smiles": "O=c1ccc(C(F)(F)F)cn1-c1ccccc1Cl", "EC50": "> 200 µM"},
      {"smiles": "Cc1cc(=O)n(-c2ccc3scnc3c2)cc1-c1cnn(C)c1", "EC50": "> 200 µM"},
      {"smiles": "Cc1cc(=O)n(-c2ccc(OC(F)(F)F)cc2)cc1-c1cnsc1", "EC50": "> 200 µM"},
      {"smiles": "Cc1cc(=O)n(-c2ccc(OC(F)(F)F)cc2)cc1-c1ccnnc1", "EC50": "in the range around 125 µM"},
      {"smiles": "O=c1ccc(-c2ccccc2)cn1-c1ccncc1", "EC50": "> 200 µM"},
      {"smiles": "Cc1cc(=O)n(-c2ccc(OC(F)(F)F)cc2)cc1-c1cscn1", "EC50": "in the range around 125 µM"},
      {"smiles": "Cc1cc(=O)n(-c2ccccc2F)cc1-c1cnn(C)c1", "EC50": "> 200 µM"},
      {"smiles": "Cc1cc(=O)n(-c2cccc3c2OCCO3)cc1-c1cnn(C)c1", "EC50": "in the range around 125 µM"},
      {"smiles": "Cc1cc(=O)n(-c2ccc(OC(F)(F)F)cc2)cc1-c1cccnc1", "EC50": "> 200 µM"},
      {"smiles": "O=c1ccc(C(F)(F)F)cn1-c1ccc(OC(F)(F)F)cc1", "EC50": "> 200 µM"},
      {"smiles": "CC(=O)Nc1cccc(-n2cc(C(F)(F)F)ccc2=O)c1", "EC50": "> 200 µM"},
      {"smiles": "Cc1cc(=O)n(-c2ccc(OC(F)(F)F)cc2)cc1-c1c(C)nn(C)c1C", "EC50": "in the range around 125 µM"},
      {"smiles": "Cc1cc(=O)n(-c2ccc(OC(F)(F)F)cc2)cc1-c1ccc2cn(C)nc2c1", "EC50": "in the range around 125 µM"},
      {"smiles": "O=c1ccc(Br)cn1-c1cccc(F)c1", "EC50": "> 200 µM"},
      {"smiles": "Cc1cc(=O)n(-c2ccc(OC(F)(F)F)cc2)cc1-c1ccc2nonc2c1", "EC50": "in the range around 125 µM"},
      {"smiles": "Cc1cc(=O)n(-c2ccc(OC(F)(F)F)cc2)cc1-c1cccc2ncsc12", "EC50": "< 50 µM"},
      {"smiles": "CC(=O)Nc1cccc(-n2cc(Br)ccc2=O)c1", "EC50": "> 200 µM"},
      {"smiles": "O=c1ccc(C(F)(F)F)cn1-c1cncnc1", "EC50": "> 200 µM"},
      {"smiles": "COc1cc(-n2cc(-c3cn[nH]c3)c(C)cc2=O)cc(OC)c1OC", "EC50": "> 200 µM"},
      {"smiles": "CCc1cc(=O)n(-c2ccc(OC(F)(F)F)cc2)cc1-c1cnn(C)c1", "EC50": "in the range around 125 µM"},
      {"smiles": "Cc1cc(=O)n(-c2ccc(Cl)cc2C)cc1-c1cnn(C)c1", "EC50": "in the range around 125 µM"},
      {"smiles": "Cc1cc(=O)n(-c2ccc(OC(F)(F)F)cc2)cc1-c1nnn(C)n1", "EC50": "> 200 µM"},
      {"smiles": "Cc1cc(=O)n(-c2ccc3c(c2)OCO3)cc1-c1cnn(C)c1", "EC50": "> 200 µM"},
      {"smiles": "COc1cccc(-n2cc(Br)ccc2=O)c1", "EC50": "> 200 µM"},
      {"smiles": "O=c1ccc(-c2ccc(F)cc2)cn1-c1ccccc1F", "EC50": "in the range around 125 µM"},
      {"smiles": "Cc1cc(=O)n(-c2ccc3ocnc3c2)cc1-c1cnn(C)c1", "EC50": "> 200 µM"},
      {"smiles": "COc1ccc(-c2ccc(=O)n(-c3ccccc3F)c2)cc1", "EC50": "> 200 µM"},
      {"smiles": "Cc1cc(=O)n(-c2ccc(OC(F)(F)F)cc2)cc1-n1ccnc1", "EC50": "> 200 µM"},
      {"smiles": "CC(C)c1ccc(=O)n(-c2ccccc2)c1", "EC50": "> 200 µM"},
      {"smiles": "CCOc1ccc(-n2cc(Br)ccc2=O)c(C)c1", "EC50": "> 200 µM"},
      {"smiles": "Cc1cc(=O)n(-c2ccc(OC(F)(F)F)cc2)cc1-c1cccc2scnc12", "EC50": "> 200 µM"},
      {"smiles": "O=c1ccc(Br)cn1-c1ccc(OC(F)(F)F)cc1", "EC50": "> 200 µM"},
      {"smiles": "Cc1cc(=O)n(-c2cccc(C(F)(F)F)c2)cc1-c1cnn(C)c1", "EC50": "> 200 µM"},
      {"smiles": "Cc1cc(=O)n(-c2ccc(OC(F)(F)F)cc2)cc1-c1ccnn1C", "EC50": "> 200 µM"},
      {"smiles": "COc1ccc(-c2ccc(=O)n(-c3ccc(Cl)cc3)c2)cc1", "EC50": "in the range around 125 µM"},
      {"smiles": "COc1ccc(-c2ccc(=O)n(-c3ccccc3Cl)c2)cc1", "EC50": "in the range around 125 µM"},
      {"smiles": "Cc1cc(=O)n(-c2ccc(OC(F)(F)F)cc2)cc1-c1nn[nH]n1", "EC50": "> 200 µM"},
      {"smiles": "O=c1ccc(Br)cn1-c1cccc(C(F)(F)F)c1", "EC50": "> 200 µM"},
      {"smiles": "O=c1ccc(-c2cccc(Cl)c2)cn1-c1ccc(Cl)cc1", "EC50": "< 50 µM"},
      {"smiles": "Cc1cc(=O)n(-c2ccc(OC(C)C)cc2C)cc1-c1cnn(C)c1", "EC50": "> 200 µM"},
      {"smiles": "CC(C)Oc1ccc(-n2cc(-c3ccc(F)cc3)ccc2=O)cc1", "EC50": "in the range around 125 µM"},
      {"smiles": "Cc1cc(=O)n(-c2ccc(OC(F)(F)F)cc2)cc1-c1ccc2c(ccn2C)c1", "EC50": "> 200 µM"},
      {"smiles": "Cc1cc(=O)n(-c2ccc(OC(F)(F)F)cc2)cc1-c1ccc2scnc2c1", "EC50": "< 50 µM"},
      {"smiles": "Cc1cc(=O)n(-c2ccc(OC(F)(F)F)cc2)cc1-c1nnnn1C", "EC50": "> 200 µM"},
      {"smiles": "Cc1cc(=O)n(-c2ccc(OC(F)(F)F)cc2)cc1-c1cnc2nccn2c1", "EC50": "> 200 µM"},
      {"smiles": "Cc1cc(=O)n(-c2ccc(OC(F)(F)F)cc2)cc1-c1cn(C)nc1C(F)(F)F", "EC50": "in the range around 125 µM"},
      {"smiles": "COc1ccc(-n2cc(-c3cccc(Cl)c3)ccc2=O)cc1", "EC50": "< 50 µM"},
      {"smiles": "CCOc1ccc(-n2cc(-c3ccccc3)ccc2=O)c(C)c1", "EC50": "in the range around 125 µM"},
      {"smiles": "O=c1ccc(-c2ccc(F)cc2)cn1-c1ccccc1Cl", "EC50": "> 200 µM"},
      {"smiles": "Cc1cc(=O)n(-c2ccc3[nH]cnc3c2)cc1-c1cnn(C)c1", "EC50": "> 200 µM"},
      {"smiles": "CCOc1ccc(-n2cc(-c3cn[nH]c3)c(C)cc2=O)c(C)c1", "EC50": "in the range around 125 µM"},
      {"smiles": "O=c1ccc(-c2ccc(F)cc2)cn1-c1cccc(C(F)(F)F)c1", "EC50": "in the range around 125 µM"},
      {"smiles": "COc1ccc(-c2ccc(=O)n(-c3cccc(OC)c3)c2)cc1", "EC50": "in the range around 125 µM"},
      {"smiles": "O=c1ccc(-c2ccccc2)cn1-c1cccc(F)c1", "EC50": "> 200 µM"},
      {"smiles": "CCOc1ccc(-n2cc(C(F)(F)F)ccc2=O)c(C)c1", "EC50": "in the range around 125 µM"},
      {"smiles": "O=c1ccc(Br)cn1-c1ccc(F)cc1", "EC50": "> 200 µM"},
      {"smiles": "Cc1ccc(=O)n(-c2cc(F)c(F)c(F)c2)c1", "EC50": "> 200 µM"},
      {"smiles": "Cc1cc(=O)n(-c2ccc(OC(F)(F)F)cc2)cc1-c1ccncc1", "EC50": "> 200 µM"},
      {"smiles": "O=c1ccc(Br)cn1-c1ccc(Cl)cc1", "EC50": "> 200 µM"},
      {"smiles": "COc1cc(-n2cc(-c3cnn(C)c3)c(C)cc2=O)cc(OC)c1OC", "EC50": "> 200 µM"},
      {"smiles": "Cc1cc(=O)n(-c2ccc(OC(F)(F)F)cc2)cc1-c1ccc2ccn(C)c2c1", "EC50": "< 50 µM"}
    ]}
  ]
}
